Measured values published in patent US12310364B2, “Safened compositions comprising pyridine carboxylate herbicides and cloquintocet” (Corteva Agriscience LLC, priority 2018, dated 2025).

How the values were obtained:
[1] = tested on: Matricaria chamomilla (wild chamomile), MATCH; experiment: Greenhouse postemergence trial, visual injury on wild chamomile; assay type: in vivo; settings: herbicide alone 20 g/ha
Protocol: Greenhouse Trial Methodology-Evaluation of Postemergence Herbicidal […] in Crops […] When required to ensure good germination and healthy plants, a fungicide treatment and/or other chemical or physical treatment was applied. The plants were grown for 7-36 days (d) in a greenhouse with an approximate 14-hour (h) photoperiod which was maintained at about 23° C. during the day and 22° C. during the night. Nutrients and water were added on a regular basis and supplemental lighting was provided with overhead metal halide 1000-Watt lamps as necessary. The plants were employed for testing when they reached the second or third true leaf stage. Emulsifiable concentrates of each of each pyridine carboxylate herbicide (Compound A or Compound B) were prepared at 100 grams acid equivalent per liter (g ae/L). […] The concentrated stock solutions were further diluted with an aqueous mixture of 1.25% […] or MSO® Concentrate with LECI-TECH® to obtain stock solutions at reduced application rates for each herbicide. Spray solutions of the herbicide combinations (Compound A or Compound B plus safener) were prepared by adding weighed amounts or aliquots of the safener to the stock solutions of Compound A or Compound B to form 12-mL spray solutions in two-way combinations. […] Control plants were sprayed in the same manner with the solvent blank. All herbicide (component a) application rates are given as “g ae/ha” and all safener (component b) application rates are given as “g ai/ha.” The treated plants and control plants were placed in a greenhouse as described above and watered by sub-irrigation to prevent wash-off of the test compounds.

[2] = tested on: Fagopyrum esculentum (common buckwheat), FAGES; experiment: Greenhouse postemergence trial, visual injury on common buckwheat; assay type: in vivo
Excerpt: Greenhouse Trial Methodology—Evaluation of Postemergence Herbicidal Safening in Crops
Seeds of the desired test plant species were planted in a 90:10% v/v (volume/volume) mixture of PRO-MIX® BX (Premier Tech Horticulture, Quakertown, PA, USA) and PROFILE® GREENS GRADE™ (Profile Products LLC, Buffalo Grove, IL, USA) planting mixture, which typically has a pH of 5.2 to 6.2 and an organic matter content of at least 50 percent, in plastic pots with a surface area of 103.2 square centimeters (cm^2). When required to ensure good germination and healthy plants, a fungicide treatment and/or other chemical or physical treatment was applied. The plants were grown for 7-36 days (d) in a greenhouse with an approximate 14-hour (h) photoperiod which was maintained at about 23° C. during the day and 22° C. during the night. Nutrients and water were added on a regular basis and supplemental lighting was provided with overhead metal halide 1000-Watt lamps as necessary. The plants were employed for testing when they reached the second or third true leaf stage.
Emulsifiable concentrates of each of each pyridine carboxylate herbicide (Compound A or Compound B) were prepared at 100 grams acid equivalent per liter (g ae/L). An aliquot of each emulsifiable concentrate was placed in a 25 mL glass vial and diluted with an aqueous mixture of 1.25% (v/v) ACTIROB® B esterified rapeseed oil (Bayer Crop Science, Research Triangle Park, NC, USA) or MSO® Concentrate with LECI-TECH® methylated soybean oil (Loveland Products, Loveland, CO, USA) to obtain concentrated stock solutions at the highest application rate for each herbicide, based upon a 12 milliliter (mL) application volume at a rate of 187 liters per hectare (L/ha). The concentrated stock solutions were further diluted with an aqueous mixture of 1.25% v/v ACTIROB® B or MSO® Concentrate with LECI-TECH® to obtain stock solutions at reduced application rates for each herbicide. Spray solutions of the herbicide combinations (Compound A or Compound B plus safener) were prepared by adding weighed amounts or aliquots of the safener to the stock solutions of Compound A or Compound B to form 12-mL spray solutions in two-way combinations.
The spray solutions were applied to the plant material with an overhead Mandel track sprayer equipped with 8002E nozzles calibrated to deliver 187 L/ha over an application area of 0.503 square meters (m^2) at a spray height of 18 inches (43 centimeters (cm)) above the average plant canopy. Control plants were sprayed in the same manner with the solvent blank. All herbicide (component a) application rates are given as “g ae/ha” and all safener (component b) application rates are given as “g ai/ha.”
The treated plants and control plants were placed in a greenhouse as described above and watered by sub-irrigation to prevent wash-off of the test compounds. After 20-22 d, the condition of the test plants as compared with that of the control plants was determined visually and scored on a scale of 0 to 100 percent where 0 corresponds to no injury and 100 corresponds to complete kill.

| SMILES | % visual injury, Ob [1] | % visual injury, Ob ([2]; safener alone 5 g/ha) | % visual injury, Ob ([2]; safener alone 10 g/ha) | % visual injury, Ob ([2]; safener alone 20 g/ha) | % visual injury, Ob ([2]; safener alone 40 g/ha) |
| --- | --- | --- | --- | --- | --- |
| N#CCOC(=O)c1nc(-c2ccc3cc[nH]c3c2F)c(F)c(N)c1Cl [Compound A, cyanomethyl 4-amino-3-chloro-5-fluoro-6-(7-fluoro-1H-indol-6-yl)pyridine-2-carboxylate] | 50% | – | – | – | – |
| CCCCCC(C)OC(=O)COc1ccc(Cl)c2cccnc12 (centres unmarked) [CQC-mexyl, cloquintocet-mexyl] | – | 0% | 0% | 0% | 0% |
